Measured values taken from patent US11267800B2, “Cyclohexyl acid triazole azines as LPA antagonists” (BRISTOL-MYERS SQUIBB COMPANY, priority 2017, dated 2022).

Target: T1, human LPA1 (Homo sapiens, UniProt Q92633)
T1 construct: expressed in transfected cells; host or cells: Chinese hamster ovary (CHO) cells
Test: LPA1 functional antagonist assay (calcium flux)
Type: cell-based
Details: CHO cells overexpressing human LPA1; inhibition of calcium flux induced by 10 nM LPA; read-out: hLPA1 IC50
Summary of the method: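 IC50 values come from 4-parameter logistic fits and mark 50% block of the calcium flux evoked by 10 nM LPA. Human LPA1-overexpressing CHO cells were calcium-dye loaded at 37 °C, then given test compound (0.08 nM–5 μM, 0.5% DMSO, HEPES-buffered HBSS with 0.1% fatty-acid-free BSA) for 20 min at room temperature before agonist.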

T1 sequence (Q92633 whole entry): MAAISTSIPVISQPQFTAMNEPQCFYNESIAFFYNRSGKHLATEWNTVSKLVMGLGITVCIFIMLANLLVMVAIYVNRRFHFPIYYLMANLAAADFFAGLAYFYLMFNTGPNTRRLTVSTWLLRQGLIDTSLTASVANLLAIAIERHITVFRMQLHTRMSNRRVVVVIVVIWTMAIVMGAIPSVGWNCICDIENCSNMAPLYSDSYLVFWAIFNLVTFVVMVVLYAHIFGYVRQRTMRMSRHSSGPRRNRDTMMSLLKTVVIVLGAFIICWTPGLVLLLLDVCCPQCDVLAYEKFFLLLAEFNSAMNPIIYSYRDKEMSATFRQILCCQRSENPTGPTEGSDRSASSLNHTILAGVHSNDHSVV

Compound	IC50 [nM]
Cc1nc(-c2nnn(C)c2CNc2nccc(Oc3ccccn3)n2)ccc1O[C@H]1CCC[C@H](C(=O)O)C1 [Example 113]	191
Cc1nc(-c2nnn(C)c2CNc2ncccc2OC(C)C)ccc1O[C@H]1CCC[C@H](C(=O)O)C1 [Example 118]	448
Cc1nc(-c2nnn(C)c2CNc2ncccc2OC(F)(F)F)ccc1O[C@H]1CCC[C@H](C(=O)O)C1 [Example 119]	793
COc1cnc(NCc2c(-c3ccc(O[C@H]4CCC[C@H](C(=O)O)C4)c(C)n3)nnn2C)nc1C(C)(C)C [Example 120]	344
COc1cnc(NCc2c(-c3ccc(O[C@H]4CCC[C@H](C(=O)O)C4)c(C)n3)nnn2C)nc1C1CCC1 [Example 121]	106
COC(C)(C)c1ccnc(NCc2c(-c3ccc(O[C@H]4CCC[C@H](C(=O)O)C4)c(C)n3)nnn2C)n1 [Example 122]	1130
COCC(C)(C)c1ccnc(NCc2c(-c3ccc(O[C@H]4CCC[C@H](C(=O)O)C4)c(C)n3)nnn2C)n1 [Example 124]	385
Cc1nc(-c2nnn(C)c2CNc2cc(C(F)(F)F)nc(Cl)n2)ccc1O[C@H]1CCC[C@H](C(=O)O)C1 [Example 125]	167
Cc1nc(-c2nnn(C)c2CNc2nccc(C(C)(C)CO)n2)ccc1O[C@H]1CCC[C@H](C(=O)O)C1 [Example 128]	855
CCc1cc(CC)nc(NCc2c(-c3ccc(O[C@H]4CCC[C@H](C(=O)O)C4)c(C)n3)nnn2C)n1 [Example 129]	102
Cc1nc(-c2nnn(C)c2CNc2nccc(Oc3ccccc3)n2)cnc1O[C@H]1CCC[C@H](C(=O)O)C1 [Example 130]	105
Cc1nc(-c2nnn(C)c2CNc2nccc(C(C)(F)F)n2)ccc1O[C@H]1CCC[C@H](C(=O)O)C1 [Example 133]	116
Cc1nc(-c2nnn(C)c2CNc2nccc(C(C)C)n2)cnc1O[C@H]1CCC[C@H](C(=O)O)C1 [Example 135]	296
Cn1nnc(-c2ccc(O[C@H]3CCC[C@H](C(=O)O)C3)cn2)c1CNc1ccnc(OC2CC2)n1 [Example 140]	1370
COc1nc(NCc2c(-c3ccc(O[C@H]4CCC[C@H](C(=O)O)C4)c(C)n3)nnn2C)ncc1F [Example 142]	159
Cc1nc(-c2nnn(C)c2CNc2ncc3c(n2)-c2ccccc2OC3)ccc1O[C@H]1CCC[C@H](C(=O)O)C1 [Example 147]	278
Cc1nc(-c2nnn(C)c2CNc2nccc(C(C)(C)O)n2)ccc1O[C@H]1CCC[C@H](C(=O)O)C1 [Example 153]	704
Cc1nc(-c2nnn(C)c2CNc2nccc(C34CC(C3)C4)n2)ccc1O[C@H]1CCC[C@H](C(=O)O)C1 [Example 155]	96
COC(=O)c1cc(C(C)(C)C)nc(NCc2c(-c3ccc(O[C@H]4CCC[C@H](C(=O)O)C4)c(C)n3)nnn2C)n1 [Example 161]	443
Cc1nc(-c2nnn(C)c2CNc2nc(C(N)=O)cc(C(C)(C)C)n2)ccc1O[C@H]1CCC[C@H](C(=O)O)C1 [Example 162]	2370
COC(=O)c1cc(C2CCC2)nc(NCc2c(-c3ccc(O[C@H]4CCC[C@H](C(=O)O)C4)c(C)n3)nnn2C)n1 [Example 163]	168
Cc1nc(-c2nnn(C)c2CNc2nc(C(N)=O)cc(C3CCC3)n2)ccc1O[C@H]1CCC[C@H](C(=O)O)C1 [Example 165]	243
Cc1nc(-c2nnn(C)c2CNc2nc(C#N)cc(C(C)(C)C)n2)ccc1O[C@H]1CCC[C@H](C(=O)O)C1 [Example 166]	180
Cc1nc(-c2nnn(C)c2CNc2ncc(C#N)c(C3CCC3)n2)ccc1O[C@H]1CCC[C@H](C(=O)O)C1 [Example 168]	129
Cc1nc(-c2nnn(C)c2CNc2ncc(C#N)c(C(C)(C)C)n2)ccc1O[C@H]1CCC[C@H](C(=O)O)C1 [Example 171]	177
CCOc1cc(OCC)nc(NCc2c(-c3ccc(O[C@H]4CCC[C@H](C(=O)O)C4)c(C)n3)nnn2C)n1 [Example 173]	127
Cc1nc(-c2nnn(C)c2CNc2nc(OC(C)C)cc(OC(C)C)n2)ccc1O[C@H]1CCC[C@H](C(=O)O)C1 [Example 175]	384
CCCOc1nc(NCc2c(-c3ccc(O[C@H]4CCC[C@H](C(=O)O)C4)c(C)n3)nnn2C)nc(OC)n1 [Example 177]	250
Cc1nc(-c2nnn(C)c2CNc2nncc(C(C)(C)C)n2)ccc1O[C@H]1CCC[C@H](C(=O)O)C1 [Example 178]	498
Cc1nc(-c2nnn(C)c2CNc2cc(OC3CCC3)ccn2)ccc1O[C@H]1CCC[C@H](C(=O)O)C1 [Example 180]	246

The next compounds have a lower IC50 than those just listed; values first:

IC50 [nM]	Compound
45	Cc1nc(-c2nnn(C)c2CNc2nccc(Oc3ccc(Cl)cc3)n2)ccc1O[C@H]1CCC[C@H](C(=O)O)C1 [Example 112]
17	Cc1nc(-c2nnn(C)c2CNc2nccc(Oc3cc(F)cc(F)c3)n2)ccc1O[C@H]1CCC[C@H](C(=O)O)C1 [Example 114]
25	Cc1nc(-c2nnn(C)c2CNc2nccc(Oc3ccccc3F)n2)ccc1O[C@H]1CCC[C@H](C(=O)O)C1 [Example 115]
14	Cc1nc(-c2nnn(C)c2CNc2nccc(Oc3ccc(F)cc3F)n2)ccc1O[C@H]1CCC[C@H](C(=O)O)C1 [Example 116]
32	Cc1nc(-c2nnn(C)c2CNc2nccc(OC3CC3)n2)ccc1O[C@H]1CCC[C@H](C(=O)O)C1 [Example 117]
79	Cc1nc(-c2nnn(C)c2CNc2ncc(F)c(-c3ccccc3F)n2)ccc1O[C@H]1CCC[C@H](C(=O)O)C1 [Example 123]
22	Cc1nc(-c2nnn(C)c2CNc2nccc(CC(C)C)n2)ccc1O[C@H]1CCC[C@H](C(=O)O)C1 [Example 126]
22	Cc1nc(-c2nnn(C)c2CNc2nccc(C(C)(C)CF)n2)ccc1O[C@H]1CCC[C@H](C(=O)O)C1 [Example 127]
53	Cc1nc(-c2nnn(C)c2CNc2nccc(C(C)(C)F)n2)ccc1O[C@H]1CCC[C@H](C(=O)O)C1 [Example 132]
28	CCC(F)(F)c1ccnc(NCc2c(-c3ccc(O[C@H]4CCC[C@H](C(=O)O)C4)c(C)n3)nnn2C)n1 [Example 134]
86	Cc1nc(-c2nnn(C)c2CNc2nccc(C(C)(C)C)n2)cnc1O[C@H]1CCC[C@H](C(=O)O)C1 [Example 136]
56	Cc1nc(-c2nnn(C)c2CNc2nccc(-c3ccccc3)n2)cnc1O[C@H]1CCC[C@H](C(=O)O)C1 [Example 137]
33	Cc1nc(-c2nnn(C)c2CNc2nccc(-c3ccccc3F)n2)cnc1O[C@H]1CCC[C@H](C(=O)O)C1 [Example 138]
42	Cn1nnc(-c2ccc(O[C@H]3CCC[C@H](C(=O)O)C3)cn2)c1CNc1nccc(OC2CC2)n1 [Example 139]
22	CCOc1ccnc(NCc2c(-c3ccc(O[C@H]4CCC[C@H](C(=O)O)C4)cn3)nnn2C)n1 [Example 141]
26	Cc1nc(-c2nnn(C)c2CNc2ncc(F)c(-c3ccccc3)n2)ccc1O[C@H]1CCC[C@H](C(=O)O)C1 [Example 143]
40	Cc1nc(-c2nnn(C)c2CNc2ncc(F)c(C(C)(C)C)n2)ccc1O[C@H]1CCC[C@H](C(=O)O)C1 [Example 144]
58	Cc1cc(-c2ccccc2C#N)nc(NCc2c(-c3ccc(O[C@H]4CCC[C@H](C(=O)O)C4)c(C)n3)nnn2C)n1 [Example 145]

IC50 [nM]	Compound
70	CCC1(c2ccnc(NCc3c(-c4ccc(O[C@H]5CCC[C@H](C(=O)O)C5)c(C)n4)nnn3C)n2)CC1 [Example 148]
34	CCC(C)(C)c1ccnc(NCc2c(-c3ccc(O[C@H]4CCC[C@H](C(=O)O)C4)c(C)n3)nnn2C)n1 [Example 149]
84	Cc1nc(-c2nnn(C)c2CNc2cc(C(C)(C)C)ccn2)ccc1O[C@H]1CCC[C@H](C(=O)O)C1 [Example 150]
40	Cc1nc(-c2nnn(C)c2CNc2nccc(C3(C)CC3)n2)ccc1O[C@H]1CCC[C@H](C(=O)O)C1 [Example 151]
67	Cc1nc(-c2nnn(C)c2CNc2cc(Oc3ccccc3)ccn2)ccc1O[C@H]1CCC[C@H](C(=O)O)C1 [Example 152]
43	Cc1nc(-c2nnn(C)c2CNc2nccc(C3CC3C)n2)ccc1O[C@H]1CCC[C@H](C(=O)O)C1 (stereo partly drawn) [Example 154]
32	Cc1nc(-c2nnn(C)c2CNc2nccc(C3CC(F)C3)n2)ccc1O[C@H]1CCC[C@H](C(=O)O)C1 (stereo partly drawn) [Example 156]
40	Cc1nc(-c2nnn(C)c2CNc2ncc(F)c(C(C)C)n2)ccc1O[C@H]1CCC[C@H](C(=O)O)C1 [Example 157]
27	Cc1nc(-c2nnn(C)c2CNc2ncc(Cl)c(C(C)C)n2)ccc1O[C@H]1CCC[C@H](C(=O)O)C1 [Example 158]
21	CCC(C)c1ccnc(NCc2c(-c3ccc(O[C@H]4CCC[C@H](C(=O)O)C4)c(C)n3)nnn2C)n1 (stereo partly drawn) [Example 159]
17	Cc1nc(-c2nnn(C)c2CNc2nccc(C3CC(F)(F)C3)n2)ccc1O[C@H]1CCC[C@H](C(=O)O)C1 [Example 160]
42	Cc1nc(-c2nnn(C)c2CNc2nc(C#N)cc(C3CCC3)n2)ccc1O[C@H]1CCC[C@H](C(=O)O)C1 [Example 164]
55	Cc1nc(-c2nnn(C)c2CNc2nccc(C3(C)CC(F)(F)C3)n2)ccc1O[C@H]1CCC[C@H](C(=O)O)C1 [Example 167]
86	COc1cc(C(C)(C)C)nc(NCc2c(-c3ccc(O[C@H]4CCC[C@H](C(=O)O)C4)c(C)n3)nnn2C)n1 [Example 169]
16	COc1cc(C2CCC2)nc(NCc2c(-c3ccc(O[C@H]4CCC[C@H](C(=O)O)C4)c(C)n3)nnn2C)n1 [Example 170]
61	COc1cc(OC)nc(NCc2c(-c3ccc(O[C@H]4CCC[C@H](C(=O)O)C4)c(C)n3)nnn2C)n1 [Example 172]
56	CCOc1cc(C)nc(NCc2c(-c3ccc(O[C@H]4CCC[C@H](C(=O)O)C4)c(C)n3)nnn2C)n1 [Example 174]
27	COc1cc(C(C)C)nc(NCc2c(-c3ccc(O[C@H]4CCC[C@H](C(=O)O)C4)c(C)n3)nnn2C)n1 [Example 176]
